In series [1] the test system is MCF-7 cells. Put plainly: Determination of endocytosis pathways in MCF-7 cells. It counts as cell-based, human. The note with it: CPZ 10 μM, AMI 1 mM, DOX 2 μM, 2 h. As for the experimental part: MCF-7 cells were seeded in 6-well plates (1×10^4 cells per well) and culture for 48 h. […] Then the cells were incubated with DOX/FA-NCl/NCa at DOX concentration of 2 μM or FA-NCI/AF488-NCa of the same concentration in the presence of the inhibitors for another 2 h. After washing the cells by 4° C. PBS twice, the cells were lysed with Pierce IP lysis buffer (Thermo Scientific) and centrifuged. Fluorescence of DOX and AF488 and protein concentration in the supernatant were measured, respectively, by a microplate reader (Infinite […], Tecan).

Series [2] deals with U2OS.EGFP cells. In words: Determination of endocytosis pathways in U2OS.EGFP cells. It counts as cell-based, human. The note with it: MCD 3 mM, AMI 1 mM, flow cytometry. As for the experimental part: U2OS.EGFP cells were seeded in 24-well plates (˜25000 cells/well) and cultured for 2 d. Then the cells were pre-incubated with several endocytosis inhibitors^[19b], such as chlorpromazine (CPZ, 10 μM) for clathrin-mediated endocytosis, nystatin (NYS, 25 μg/mL) for caveolin-mediated endocytosis, methyl-β-cyclodextrin (MCD, 3 mM) for lipid raft and amiloride (AMI, 1 mM) for macropinocytosis, for 1 h at 37° C., respectively. Afterwards, the cells were incubated with AF647-Cas9/sgRNA/NC/PEI for another 2 h in the presence of the inhibitors. Cells were then washed, trypsinized and resuspended in full serum medium, intracellular AF647 fluorescence intensities were analyzed by flow cytometry.

Series [3] in a line: Stability of DNA NC incubated with Cas9/sgRNA (agarose gel). It counts as physicochemical. The note with it: Cas9/sgRNA 24 h. The protocol:
The DNA NCs were prepared by RCA using cyclized single stranded DNA (ssDNA) templates. 5′ phosphorylated linear ssDNA templates (FIG. 21) were cyclized by CircLigase II ssDNA ligase (Epicentre) following manufacture's instructions. Unligated ssDNA chains were removed with 1 U Exo I (NEB) at 37° C. for 45 min followed by heat inactivation at 80° C. for 15 min. The cyclized ssDNA template (10 pmol) was added into 1 mL 1× isothermal amplification buffer (NEB) together with 0.5 μM primer and 200 μM dNTP and heated to 95° C. for 5 min. After hybridizing the template and primer by cooling the mixture to room temperature, Bst 2.0 DNA polymerase (0.2 U/μL) was added to initiate the RCA. The RCA was performed at 65° C. overnight and the denatured polymerase after the reaction was removed by centrifugation at 14,000×g for 2 min. […] The synthesized DNA NCs were analyzed by 0.8% agarose gel electrophoresis and Nanodrop 2000C (Thermal Scientific) was applied to measure the concentration and purity of the DNA NC. […] Zeta potential and particle size of NC were measured with a Zetasizer (Malvern). To image the NC by atomic force microscopy (AFM), the NC was dropped and dried onto a silicon wafer (Ted Pella) and analyzed on a Nanoscope AFM instrument (Veeco, Santa Barbara, Calif.) using tapping mode in ambient air.

Series [4] deals with EGFP gene in U2OS.EGFP cells. In words: EGFP gene disruption assay in U2OS.EGFP cells (fluorescence microscopy, flow cytometry). Conditions: NC-23, NC-12, NC-0 coated with PEI; different Cas9/sgRNA molar ratios. It counts as cell-based, human. As for the experimental part: The reporter cell line U2OS.EGFP with a single copy of destabilized EGFP gene integrated into the genome was a generous gift from Dr. J Keith Joung at Massachusetts General Hospital.^[6b] The cells were cultured in a 37° C. incubator under 5% CO2 and 90% humidity with full serum medium: Dulbecco's Modified Eagle's Medium supplemented with 10% (v/v) FBS, 2 mM GlutaMAX (Life Technologies), penicillin (100 U/mL) and streptomycin (100 μg/mL). U2OS.EGFP cells were seeded into 24-well plates (˜25,000 cells per well) one day before the transfection. […] Two days after the delivery, the cells were analyzed using a fluorescent microscope (IX71, Olympus). For the flow cytometry analysis, the cells were washed with ice cold PBS twice and trypsinized with 0.05% trypsin (Mediatech) at 37° C. for 1-2 min. Afterwards, the cells were washed and resuspended in full serum medium and analyzed by a BD Accuri C6 flow cytometer (BD Biosciences).

`N=C(N)NC(=O)c1nc(Cl)c(N)nc1N` [amiloride]: in series [1], the “effect of endocytosis inhibitor on internalization of DOX/FA-NCl/NCa” value is on record as “pronounced effects in inhibiting the internalization”. Also, in series [2], the “effect of endocytosis inhibitor on uptake of Cas9/sgRNA/NC-12/PEI (AF647-Cas9)” value is on record as “greatest reduction in Cas9 uptake”.
Turning to `CN(C)CCCN1c2ccccc2Sc2ccc(Cl)cc21` [chlorpromazine], the “effect of endocytosis inhibitor on internalization of DOX/FA-NCl/NCa” value in series [1] is “pronounced effects in inhibiting the internalization”.
As to methyl-β-cyclodextrin, the “effect of endocytosis inhibitor on uptake of Cas9/sgRNA/NC-12/PEI (AF647-Cas9)” value in series [2] is reported as “greatest reduction in Cas9 uptake”.

B1: NC-0: DNA NC variant with 0 nucleotides complementary to the sgRNA (nucleic acid)
DNA: GAGAAACGAGTGCGGTCACAGCTAAGCTAGATGCATCTAGCAAGCGCCGCCACTGATTTCACCGCTTCAAGCTAGATGCATCTAGCAAT
modifications: DNA nanoclew made by rolling circle amplification of circularized template, further chemistry not given here; the letters are possibly those of the target site
notes: DNA NC variant with 0 nucleotides complementary to the sgRNA
As for B1, the “resistance of DNA NC to Cas9/sgRNA degradation” value in series [3] is listed as “resistant to Cas9/sgRNA degradation”.

B2: NC-23: DNA NC variant with 23 nucleotides complementary to the sgRNA (nucleic acid)
DNA: GGGCACGGGCAGCTTGCCGGTGGAAGCTAGATGCATCTAGCAAGCGCCGCCACTGATTTCACCGCTTCAAGCTAGATGCATCTAGCAAT
modifications: DNA nanoclew made by rolling circle amplification of circularized template, further chemistry not given here; the letters are possibly those of the target site
notes: DNA NC variant with 23 nucleotides complementary to the sgRNA
On to B2, for which, in series [3], the “resistance of DNA NC to Cas9/sgRNA degradation” value is “resistant to Cas9/sgRNA degradation”.

B3: NC-12: DNA nanoclew encoding 12 nucleotides complementary to the 5′ end of the sgRNA (nucleic acid)
DNA: GCTACCGGGCAGCTTGCATCAATAAGCTAGATGCATCTAGCAAGCGCCGCCACTGATTTCACCGCTTCAAGCTAGATGCATCTAGCAAT
modifications: Rolling circle amplification template for DNA nanoclew, further chemistry not given here; the letters are possibly those of the target site
notes: DNA nanoclew encoding 12 nucleotides complementary to the 5′ end of the sgRNA
For B3, in series [4], the “fraction of EGFP negative cells among DNA NC variants” value was “highest fraction of EGFP negative cells”.

The values above are taken from patent publication US20190142744A1, “NUCLEIC ACID NANOCAGES, COMPOSITIONS, AND USES THEREOF” (North Carolina State University, priority 2015, published 2019).
